Measurements reported in patent publication US11944624B2, “Peptide and small molecule agonists of EphA and their uses” (CASE WESTERN RESERVE UNIVERSITY, priority 2017, dated 2024).

How the values were obtained:
EphA4 = biological target: T1, EphA4 (Homo sapiens, UniProt P54764); assay: EphA4 activation in HEK 293 cells overexpressing EphA4; type: cell-based; details: HEK 293 overexpressing EphA4, 60 minutes
T1 construct: expressed in transfected cells; host or cells: HEK 293
Description: Cells were plated in 24-well dishes at a density of 100,000 cells/well and grown for 24 hours prior to stimulation with appropriate compounds and ephrins for the given amounts of time. Compounds were prepared in DMSO at 500 times the final concentrations and 0.2% DMSO was used as vehicle control. Following treatment, cells were lysed directly in SDS Gel Loading Buffer and immunoblotted as described previously. […] For immunoprecipitation, 300,000 cells/well were plated in 6-well dishes and lysed in modified RIPA Buffer (20 mM Tris-HCl pH 7.4, 20 mM NaF, 150 mM NaCl, 10% glycerol, 0.1% SDS, 0.5% DCA, 2 mM EDTA, 1% Triton X-100) following treatment. Either 10 μg of ephrin-A1-Fc, or 4 mg of EphA2 mouse monoclonal antibody (Clone D7, Millipore) were used, and mouse IgG was used as a negative control for EphA2 IP. […] For this purpose, HEK 293 cell lines overexpressing EphA1, EphA2, EphA3, EphA4, and EphB3 kinases were utilized.

EphA2 [1] = biological target: T2, EphA2 (Homo sapiens, UniProt P29317); assay: EphA2 internalization in MDA-MB-231 cells (immunofluorescence, Example 2); type: cell-based; design: expressed in transfected cells; host or cells: MDA-MB-231 (MDA-231-A2 / MDA-MB-231-A2), puromycin selected; details: 60 min, Doxazosin 50 μM
Description: This was performed using the MDA-MB-231 cell line. This cell line spreads well in culture, thereby facilitating immunofluorescence detection of cell surface and intracellular EphA2 (FIG. 28). […] MDA-MB-231 cells were plated in 24-well plates on 10 mm square coverslips coated with 10 μg/ml fibronectin and incubated 24-48 hrs before treatment with 50 μM Doxazosin and various doses of compound 27 (0.4, 2, 10, 50 μM) in 0.5% DMSO for 1 hr. As another positive control, cells were treated with 2 μg/ml ephrin-A1-Fc. Cells were then washed with PBS and fixed with 4% paraformaldehyde (Electron Microscopy Sciences, Hatfield, PA) on ice for 10 min, followed by washing and permeabilization with 0.4% NP-40 for 10 min on ice. […] Cells were then incubated in primary mouse EphA2 antibody (D7, 1:100) in 0.1% BSA/PBS for 1 hr at room temperature, washed in PBS and BSA/PBS, followed by incubation in secondary donkey anti-mouse Alexa Fluor 488 antibody (1:300) in BSA/PBS for 30 min at room temperature. Cells were washed in PBS and BSA/PBS, followed by mounting in DAPI Mounting Medium (Electron Microscopy Sciences). Images were taken with a Leica microscope.

ERK1/2 and Akt = assay: Inhibition of ERK1/2 and Akt activation in A172-A2 cells; type: cell-based; details: 50 μM and 100 μM
Description: (§1) Cells were plated in 24-well dishes at a density of 100,000 cells/well and grown for 24 hours prior to stimulation with appropriate compounds and ephrins for the given amounts of time. Compounds were prepared in DMSO at 500 times the final concentrations and 0.2% DMSO was used as vehicle control. Following treatment, cells were lysed directly in SDS Gel Loading Buffer and immunoblotted as described previously. Immunoprecipitation and immunofluorescence staining was performed as described. For immunoprecipitation, 300,000 cells/well were plated in 6-well dishes and lysed in modified RIPA Buffer (20 mM Tris-HCl pH 7.4, 20 mM NaF, 150 mM NaCl, 10% glycerol, 0.1% SDS, 0.5% DCA, 2 mM EDTA, 1% Triton X-100) following treatment. Either 10 μg of ephrin-A1-Fc, or […] of EphA2 mouse monoclonal antibody (Clone D7, Millipore) were used, and mouse IgG was used as a negative control for EphA2 IP.
Activation of EphA2 receptor by ephrin-A1 ligand inhibits both ERK1/2 and Akt kinase activities in most normal cells and a subset of cancer cells. […] We first tested this by utilizing the A172 glioma cells engineered to overexpress EphA2 receptor (A172-A2).

EphA2 [2] = biological target: T2, EphA2; assay: EphA2 activation in MDA-231-A2 cells (pEphA/B immunoblot); type: cell-based; design: expressed in transfected cells; host or cells: MDA-MB-231 (MDA-231-A2 / MDA-MB-231-A2), puromycin selected; EphA2 activation in compound screen: dose or concentration left out as unconfirmed
Description: Cells were plated in 24-well dishes at a density of 100,000 cells/well and grown for 24 hours prior to stimulation with appropriate compounds and ephrins for the given amounts of time. Compounds were prepared in DMSO at 500 times the final concentrations and 0.2% DMSO was used as vehicle control. Following treatment, cells were lysed directly in SDS Gel Loading Buffer and immunoblotted as described previously. Immunoprecipitation and immunofluorescence staining was performed as described. For immunoprecipitation, 300,000 cells/well were plated in 6-well dishes and lysed in modified RIPA Buffer (20 mM Tris-HCl pH 7.4, 20 mM NaF, 150 mM NaCl, 10% glycerol, 0.1% SDS, 0.5% DCA, 2 mM EDTA, 1% Triton X-100) following treatment. Either 10 μg of ephrin-A1-Fc, or […] of EphA2 mouse monoclonal antibody (Clone D7, Millipore) were used, and mouse IgG was used as a negative control for EphA2 IP. To identify small molecule agonists for EphA2, we took a structure-based in silico screening approach. […] This notion was confirmed recently by determination of the crystal structure of the EphA2/ephrin-A1 complex (FIG. 1B). The size falls in the range of common drugs, making EphA2 LBD a desirable target for drug discovery. Toward this end, we initiated in silico screening to search for small molecules that interact favorably with the ligand-binding pocket of EphA2 derived from molecular modeling before the crystal structure became available. Multiple conformations for each structure were generated with OMEGA (OpenEye) and each conformation was docked individually using DOCK. Our initial screening of over 750,000 compounds identified a number of small molecules that could potentially interact with the ligand-binding pocket. The commercially available top-scoring compounds were screened for their ability to induce EphA2 activation in MDAMB-231 breast cancer cells. Because MDA-MB-231 cells express endogenous EphA2 as well as other Eph receptors, including EphA1, we overexpressed EphA2 in order to minimize the contribution from other Eph receptors in our analysis. […] Total cell lysates were probed with a previously described antibody that recognizes the activated Eph receptors. […] Originally developed as an antagonist for α1-adrenoreceptor, doxazosin (FIG. 1D) is an FDA-approved drug (CARDURA) for treating hypertension and benign prostate hyperplasia (BPH). To confirm specific EphA2 activation by doxazosin, we analyzed levels of activated Eph receptor in MDA-231-A2 cells following treatment with multiple doses of doxazosin and EphA2 immunoprecipitation.

ERK and Akt activities = ERK and Akt activities in LK133A-A2 cells (EphA2 restored); type: cell-based, mice
Description: as §1
To address this question, we utilized an immortalized liver epithelial cell line, LK133A, isolated from a hepatoma induced by DEN in EphA2 knockout mice. Retroviral vector was used to restore EphA2 expression in these cells (LK133A-A2), and cells transduced with an empty vector were used as control (LK133AVec).

[3] = MDA-231-A2 cells, single 50 μM dose

T2 sequence (P29317 24-976): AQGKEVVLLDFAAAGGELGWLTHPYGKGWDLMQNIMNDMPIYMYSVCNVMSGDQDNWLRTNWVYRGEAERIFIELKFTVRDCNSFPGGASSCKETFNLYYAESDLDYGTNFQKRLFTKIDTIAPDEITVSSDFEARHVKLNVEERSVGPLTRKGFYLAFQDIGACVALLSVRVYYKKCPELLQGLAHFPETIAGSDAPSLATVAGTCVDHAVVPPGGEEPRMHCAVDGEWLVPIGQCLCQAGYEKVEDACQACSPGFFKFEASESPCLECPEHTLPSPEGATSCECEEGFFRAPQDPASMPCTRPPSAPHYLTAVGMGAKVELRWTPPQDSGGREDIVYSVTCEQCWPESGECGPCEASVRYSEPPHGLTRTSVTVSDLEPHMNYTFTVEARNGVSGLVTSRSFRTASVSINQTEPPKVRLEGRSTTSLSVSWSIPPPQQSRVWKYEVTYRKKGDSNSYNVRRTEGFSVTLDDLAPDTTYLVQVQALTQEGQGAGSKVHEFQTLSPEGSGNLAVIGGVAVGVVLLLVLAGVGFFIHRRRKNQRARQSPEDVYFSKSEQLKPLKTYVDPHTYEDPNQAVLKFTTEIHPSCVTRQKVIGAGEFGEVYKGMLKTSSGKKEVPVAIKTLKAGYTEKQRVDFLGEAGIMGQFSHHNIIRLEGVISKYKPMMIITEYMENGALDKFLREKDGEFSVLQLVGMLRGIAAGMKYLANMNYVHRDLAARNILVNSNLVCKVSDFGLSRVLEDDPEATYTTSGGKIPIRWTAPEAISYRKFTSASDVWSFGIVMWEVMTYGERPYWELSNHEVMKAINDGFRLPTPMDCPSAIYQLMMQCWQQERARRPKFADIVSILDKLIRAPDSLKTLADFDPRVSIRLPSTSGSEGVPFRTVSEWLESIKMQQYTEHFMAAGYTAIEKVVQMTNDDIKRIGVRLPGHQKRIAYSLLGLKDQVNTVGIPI
T1 sequence (P54764 20-986, species assumed): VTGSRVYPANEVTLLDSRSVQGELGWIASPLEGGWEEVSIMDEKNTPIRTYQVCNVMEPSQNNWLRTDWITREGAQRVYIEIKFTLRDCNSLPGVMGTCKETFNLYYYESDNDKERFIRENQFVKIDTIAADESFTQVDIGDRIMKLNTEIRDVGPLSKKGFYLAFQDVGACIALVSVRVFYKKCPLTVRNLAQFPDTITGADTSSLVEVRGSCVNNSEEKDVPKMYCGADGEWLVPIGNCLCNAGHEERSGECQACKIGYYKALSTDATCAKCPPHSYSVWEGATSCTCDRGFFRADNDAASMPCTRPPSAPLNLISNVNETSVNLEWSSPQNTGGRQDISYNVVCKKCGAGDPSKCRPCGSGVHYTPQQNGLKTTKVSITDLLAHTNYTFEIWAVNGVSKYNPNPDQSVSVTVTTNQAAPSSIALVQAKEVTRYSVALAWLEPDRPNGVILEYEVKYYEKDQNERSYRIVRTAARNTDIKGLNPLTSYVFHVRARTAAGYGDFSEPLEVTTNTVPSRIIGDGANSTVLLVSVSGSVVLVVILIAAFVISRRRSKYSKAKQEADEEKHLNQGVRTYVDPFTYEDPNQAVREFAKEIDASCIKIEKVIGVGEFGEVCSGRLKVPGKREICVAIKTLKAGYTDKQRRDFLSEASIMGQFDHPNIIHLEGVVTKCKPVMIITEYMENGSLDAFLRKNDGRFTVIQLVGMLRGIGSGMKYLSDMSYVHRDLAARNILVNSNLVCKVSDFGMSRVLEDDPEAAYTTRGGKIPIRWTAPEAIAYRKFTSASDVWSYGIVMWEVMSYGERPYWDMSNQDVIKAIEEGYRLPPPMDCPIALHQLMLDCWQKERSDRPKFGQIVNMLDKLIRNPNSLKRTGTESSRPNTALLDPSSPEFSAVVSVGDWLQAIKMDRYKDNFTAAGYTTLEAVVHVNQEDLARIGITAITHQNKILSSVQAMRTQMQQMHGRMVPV

## COc1cc2nc(N3CCN(C(=O)C4COc5ccccc5O4)CC3)nc(N)c2cc1OC (stereo not drawn) [Doxazosin, 2-[4-(2,3-Dihydro-1,4-benzodioxine-2-carbonyl)piperazin-1-yl]-6,7-dimethoxyquinazolin-4-amine]
EphA4
  EphA4 kinase activation: activated both EphA2 and EphA4 kinases following a similar dose-response relationship
EphA2 [1]
  EphA2 internalization: stimulated significant EphA2 internalization
ERK1/2 and Akt
  inhibition of Akt and ERK1/2 activation: significant inhibition of Akt and ERK1/2 activation
EphA2 [2]; MDA-231-A2 cells pretreated with 1 μM phenoxybenzamine
  EphA2 activation after phenoxybenzamine pretreatment versus no pretreatment: No difference in EphA2 activation
EphA2 [2]; MDA-231-A2 cells, high doses
  EphA2 degradation: degradation of EphA2 following exposure to high doses of doxazosin
EphA2 [2]; [3]
  earliest time of significant EphA2 activation: 5 min
  time of peak EphA2 activation: around 30 min
EphA2 [2]; MDA-231-A2 cells, total cell lysates
  EphA2 activation in compound screen: activated EphA2 to the greatest extent
ERK and Akt activities
  ERK and Akt inhibition after reintroduction of EphA2: restored ERK and Akt inhibition
